Measurements reported in PMC9817970 (Cancers, 2022).

Experiments:
GIST-T1 cells = assay: Cell viability assay (CellTiter-Glo); type: cell-based; settings: Homo sapiens, GISTT1; 72 h; concentration causing half-maximal growth inhibition
Experimental: (§1) GIST-T1 (Cosmobio, Tokyo, Japan, # PMC-GIST01C-COS) cells were cultured in DMEM (Welgene, # LM001-05) and HMC1.2 (Merck, Darmstadt, Germany, # SCC062) cells were cultured in IMDM (Welgene, # LM004-01). Parental Ba/F3 (DSMZ, Braunschweig, Germany, # ACC300) cells were cultured in RPMI (Welgene, # LM011-51) with 10 ng IL-3/mL (Enzo, # ALX-201-821). The culture media was supplemented with 10% fetal bovine serum and 1% penicillin/streptomycin solution. The cells were maintained in a humidified atmosphere containing 5% CO2 at 37 °C.
(§2) Cells (GIST-T1: 5.0 × 10^3; HMC1.2: 1 × 10^4) were seeded in 96-well plates. Each compound was treated in each well at 10 dose points of 3-fold serial dilution. After treatment with each compound for 72 h, CellTiter-Glo solution (Promega, # G7572) was added to each well. Anti-proliferation activity was measured the luminescence using a 96-well plate reader (EnVision 2013).

c-KIT = c-KIT (Homo sapiens, UniProt P10721); assay: Radiometric biochemical kinase assay on c-KIT; parameters: purchased Reaction Biology Corp. (contract assay service); settings: for IC50 against c-KIT: radiometric biochemical kinase assay, 10 μM ATP, inactive = less than 50% inhibition at a concentration of 10 μM; for IC50: read-out: IC50 against c-KIT; for fold enhanced c-KIT inhibitory activity compared with 6h: versus 6h
Sequence of c-KIT (P10721 26-976): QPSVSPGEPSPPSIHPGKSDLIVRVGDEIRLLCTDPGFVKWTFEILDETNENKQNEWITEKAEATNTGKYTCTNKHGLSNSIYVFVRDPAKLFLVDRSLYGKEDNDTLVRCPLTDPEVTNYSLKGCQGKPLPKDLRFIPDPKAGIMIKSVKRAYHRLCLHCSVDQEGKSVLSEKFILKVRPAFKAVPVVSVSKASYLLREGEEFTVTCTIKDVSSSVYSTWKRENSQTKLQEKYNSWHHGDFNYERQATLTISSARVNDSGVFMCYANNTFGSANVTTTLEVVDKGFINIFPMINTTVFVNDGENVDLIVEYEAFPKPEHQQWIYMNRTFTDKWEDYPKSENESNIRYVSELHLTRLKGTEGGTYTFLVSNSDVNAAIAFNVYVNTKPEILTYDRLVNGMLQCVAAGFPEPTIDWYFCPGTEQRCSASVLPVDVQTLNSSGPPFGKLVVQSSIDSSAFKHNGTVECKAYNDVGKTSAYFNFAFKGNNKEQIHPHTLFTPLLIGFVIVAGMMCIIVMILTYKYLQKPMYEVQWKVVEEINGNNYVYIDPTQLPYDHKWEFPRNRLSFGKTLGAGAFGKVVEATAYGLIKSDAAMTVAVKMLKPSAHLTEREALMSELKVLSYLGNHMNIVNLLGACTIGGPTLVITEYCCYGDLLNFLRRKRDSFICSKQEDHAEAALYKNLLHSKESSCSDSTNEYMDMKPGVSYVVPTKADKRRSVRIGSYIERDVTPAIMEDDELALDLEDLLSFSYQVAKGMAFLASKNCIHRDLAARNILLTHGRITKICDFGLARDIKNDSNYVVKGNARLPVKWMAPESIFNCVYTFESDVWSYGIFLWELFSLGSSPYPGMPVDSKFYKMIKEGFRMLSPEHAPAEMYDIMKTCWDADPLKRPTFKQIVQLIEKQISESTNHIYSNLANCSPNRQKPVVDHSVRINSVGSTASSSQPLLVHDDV
Experimental: Biochemical kinase assays on c-KIT protein kinase were performed at Reaction Biology Corp. (San Diego, CA, USA). […] The kinase assay followed the manufacturer’s instruction. IC50 values were calculated by GraphPad prism 8.0 software (GraphPad Software, San Diego, CA, USA).
Enzymatic inhibitory activities of all synthesized thiazolo[5,4-b]pyridine derivatives against c-KIT were measured using radiometric biochemical kinase assays (Table 1). We first explored the R1 group of the thiazolo[5,4-b]pyridine scaffold.

HMC1.2 cells = assay: Cell viability assay (CellTiter-Glo); type: cell-based, human; settings: 72 h; for GI50 HMC1.2: inactive = less than 50% inhibition at a concentration of 50 μM; for GI50: Homo sapiens
Experimental: as §1, §2

Compound	IC50 against c-KIT (c-KIT)	IC50 (c-KIT)	fold enhanced c-KIT inhibitory activity compared with 6h (c-KIT)	GI50 (GIST-T1 cells)	GI50 HMC1.2 (HMC1.2 cells)	GI50 (HMC1.2 cells)
Cc1ccc(NC(=O)c2cscn2)cc1-c1cnc2sc(N)nc2c1 [6a]	inactive^b	–	–	> 50 µM	Inactive ^b	–
Cc1ccc(NC(=O)c2csc(-c3ccncc3)n2)cc1-c1cnc2sc(N)nc2c1 [6c]	inactive^b	–	–	33.7 ± 3.45 µM	Inactive ^b	–
Cc1cncc(C(=O)Nc2ccc(C)c(-c3cnc4sc(N)nc4c3)c2)c1 [6f]	inactive^b	–	–	20.9 ± 2 µM	inactive ^b	–
Cc1ccc(NC(=O)c2cccc(S(C)(=O)=O)c2)cc1-c1cnc2sc(N)nc2c1 [6g]	inactive^b	–	–	10.8 ± 1.06 µM	–	36.8 ± 10.9 µM
Cc1ccc(NC(=O)c2cccc(C(F)(F)F)c2)cc1-c1cnc2sc(N)nc2c1 [6h]	–	9.87 µM	–	0.96 ± 0.1 µM	–	7.26 ± 4.13 µM
Cc1ccc(NC(=O)Cc2cccc(C(F)(F)F)c2)cc1-c1cnc2sc(N)nc2c1 [6i]	inactive^b	–	–	7.16 ± 0.87 µM	–	9.65 ± 1.06 µM
Cc1ccc(NC(=O)Nc2cccc(C(F)(F)F)c2)cc1-c1cnc2sc(N)nc2c1 [6j]	inactive^b	–	–	3.31 ± 0.73 µM	–	6.35 ± 0.32 µM
Cc1ccc(NC(=O)c2ccc(N(C)C)c(C(F)(F)F)c2)cc1-c1cnc2sc(N)nc2c1 [6k]	–	4.31 µM	2.3- to 5.6 fold	0.18 ± 0.03 µM	–	2.27 ± 0.84 µM
Cc1ccc(NC(=O)c2ccc(N3CCOCC3)c(C(F)(F)F)c2)cc1-c1cnc2sc(N)nc2c1 [6l]	–	1.76 µM	2.3- to 5.6 fold	0.08 ± 0.01 µM	–	4.34 ± 1.31 µM
Cc1ccc(NC(=O)c2ccc(N3CCN(C)CC3)c(C(F)(F)F)c2)cc1-c1cnc2sc(N)nc2c1 [6m]	–	2.17 µM	2.3- to 5.6 fold	0.27 ± 0.17 µM	–	3.41 ± 1.49 µM
Cc1ccc(NC(=O)c2cc(N3CCOCC3)cc(C(F)(F)F)c2)cc1-c1cnc2sc(N)nc2c1 [6n]	Inactive ^b	–	–	0.55 ± 0.09 µM	–	7 ± 2.68 µM
Cc1ccc(NC(=O)c2cc(N3CCN(C)CC3)cc(C(F)(F)F)c2)cc1-c1cnc2sc(N)nc2c1 [6o]	–	5.03 µM	–	0.28 ± 0.08 µM	–	2.36 ± 0.58 µM
Cc1ccc(NC(=O)c2ccc(CN3CCOCC3)c(C(F)(F)F)c2)cc1-c1cnc2sc(N)nc2c1 [6p]	–	5.72 µM	–	0.66 ± 0.1 µM	–	8.55 ± 2.4 µM
Cc1ccc(NC(=O)c2ccc(CN3CCS(=O)(=O)CC3)c(C(F)(F)F)c2)cc1-c1cnc2sc(N)nc2c1 [6q]	–	3.23 µM	–	0.42 ± 0.07 µM	–	15.5 ± 3.97 µM

The next lines start with results.

IC50 against c-KIT (c-KIT)	IC50 (c-KIT)	fold enhanced c-KIT inhibitory activity compared with 6h (c-KIT)	Compound	GI50 (GIST-T1 cells)	GI50 HMC1.2 (HMC1.2 cells)	GI50 (HMC1.2 cells)
inactive^b	–	–	Cc1cc(C(=O)Nc2ccc(C)c(-c3cnc4sc(N)nc4c3)c2)no1 [6b]	33 ± 7.09 µM	Inactive ^b	–
inactive^b	–	–	Cc1ccc(NC(=O)c2ccccc2)cc1-c1cnc2sc(N)nc2c1 [6d]	16.4 ± 2.73 µM	–	25.2 ± 2.21 µM
inactive^b	–	–	Cc1cccc(C(=O)Nc2ccc(C)c(-c3cnc4sc(N)nc4c3)c2)c1 [6e]	3.45 ± 0.41 µM	–	11.5 ± 0.62 µM
–	1.25 µM	–	Cc1ccc(NC(=O)c2ccc(CN3CCN(CCO)CC3)c(C(F)(F)F)c2)cc1-c1cnc2sc(N)nc2c1 [6t]	0.12 ± 0.03 µM	–	6.62 ± 0.75 µM
–	4.56 µM	–	CC(=O)N1CCN(Cc2ccc(C(=O)Nc3ccc(C)c(-c4cnc5sc(N)nc5c4)c3)cc2C(F)(F)F)CC1 [6u]	0.66 ± 0.08 µM	–	11.3 ± 0.34 µM
–	0.39 µM	–	Cc1ccc(NC(=O)c2ccc(CN3CCCC(N(C)C)C3)c(C(F)(F)F)c2)cc1-c1cnc2sc(N)nc2c1 (stereo not drawn) [6v]	0.05 ± 0.01 µM	–	6.81 ± 0.67 µM
–	0.25 µM	–	Cc1ccc(NC(=O)c2ccc(CN(C)CCN(C)C)c(C(F)(F)F)c2)cc1-c1cnc2sc(N)nc2c1 [6w]	0.02 ± 0.01 µM	–	4.99 ± 0.43 µM
